Laboratory results: patent publication US9868737B2, “Pyridino[1,2-A]pyrimidone analogue used as MTOR/P13K inhibitor” (CISEN PHARMACEUTICAL CO., LTD., priority 2014, dated 2018)
Like-named read-outs stand apart in the source and are kept apart here.

Tested on: MCF-7 cells
Experiment: In vitro test of cell activity (MCF-7 cells, insulin stimulation, ELISA-One fluorescence)
Assay type: cell-based
Conditions: Homo sapiens, MCF7, MCF-7 cells; for inhibition at 0.5 µM: conc. 0.5 μM; for inhibition at 1 µM: conc. 1 μM; for inhibition at 0.25 µM: conc. 0.25 μM
Method in brief: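 Fluorescence ELISA-One read-out on cell lysates, antibody-captured 1 h at room temperature. Before lysis, MCF-7 cells (2.5×10^4/well) were pretreated 2 h with compound in serum-free medium, single dose for screening or a dilution series for IC50, then stimulated 30 min with insulin ([…] final).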

SMILES	inhibition at 0.5 µM (read-out: % inhibition AKT)	inhibition at 0.5 µM (read-out: % inhibition p70s6k)	IC50 (read-out: IC50 p-AKT)	IC50 (read-out: IC50 p-p70S6K)	other results
COc1ncc(-c2ccc3nccc(=O)n3n2)cc1NS(=O)(=O)c1ccc(C(F)(F)F)cc1 [compound 80]	54.6%	14.4%			
COc1ncc(-c2ccc3ncc(OC)c(=O)n3c2)cc1NS(=O)(=O)c1ccccc1Cl [compound 105]	95.4%	90.3%	≤ 50 nM	≤ 50 nM	
COCCOc1cnc2ccc(-c3cnc(OC)c(NS(=O)(=O)C4CCCCC4)c3)cn2c1=O [compound 212]			> 250 nM		
COc1ncc(-c2ccc3nccc(=O)n3c2)cc1CS(=O)(=O)c1ccc(F)cc1F [compound 5]					inhibition at 1 µM (read-out: % inhibition AKT): 26%; inhibition at 1 µM (read-out: % inhibition p70s6k): 12.3%
CCOc1cnc2ccc(-c3cnc(OC)c(NS(=O)(=O)c4ccc(F)cc4F)c3)cn2c1=O [compound 171, N-(5-(3-ethoxy-4-oxo-4H-pyrido[1,2-a]pyrimidin-7-yl)-2-methoxypyridin-3-yl)-2,4-difluorobenzsulfamide]			50 to 100 nM	100 to 250 nM	inhibition at 0.25 µM (read-out: % inhibition AKT): 76.3%; inhibition at 0.25 µM (read-out: % inhibition p70s6k): 73.4%
COc1ncc(-c2cn3c(=O)ccnc3cc2C)cc1NS(=O)(=O)c1ccc(F)cc1Cl [compound 128]	-1.1%	0.4%			
COc1ncc(-c2ccc3ncc(N)c(=O)n3c2)cc1NS(=O)(=O)c1ccc(F)cc1F [compound 87, N-(5-(3-amino-4-oxo-4H-pyrido[1,2-a]pyrimidin-7-yl)-2-methoxpyridin-3-yl)-2,4-difluorobenzsulfamide]	92.1%	88.1%	≤ 50 nM	100 to 250 nM	
CCOc1cnc2ccc(-c3cnc(OC)c(NS(=O)(=O)c4ccc(F)cc4Cl)c3)cn2c1=O [compound 172]			≤ 50 nM	100 to 250 nM	inhibition at 0.25 µM (read-out: % inhibition AKT): 83.5%; inhibition at 0.25 µM (read-out: % inhibition p70s6k): 74.4%
CNc1ncc(-c2ccc3ncc(OCCOC)c(=O)n3c2)cc1NS(=O)(=O)c1ccc(F)cc1F [compound 215]			> 250 nM		
CNc1nc(C)c(S(=O)(=O)Nc2cc(-c3ccc4ncc(OCCOC)c(=O)n4c3)cnc2OC)s1 [compound 189]			≤ 50 nM		
COc1ncc(-c2ccc3ncc(F)c(=O)n3c2)cc1NS(=O)(=O)c1ccc(F)cc1C [compound 66]	89%	91.3%	≤ 50 nM	≤ 50 nM	
COc1ncc(-c2ccc3ncc(Cl)c(=O)n3c2)cc1NS(=O)(=O)c1cnc(C)[nH]1 [compound 155]					inhibition at 0.25 µM (read-out: % inhibition AKT): 29.8%; inhibition at 0.25 µM (read-out: % inhibition p70s6k): 42.2%
COc1ncc(-c2cn3c(=O)ccnc3cn2)cc1NS(=O)(=O)c1ccc(F)cc1 [compound 43]	17.8%	16.2%			
COc1ncc(-c2ccc3ncc(OCCO)c(=O)n3c2)cc1NS(=O)(=O)c1ccc(F)cc1F [compound 178]			50 to 100 nM		
COc1ncc(-c2ccc3ncc(Cl)c(=O)n3c2)cc1NS(=O)(=O)c1ccc(F)cc1 [compound 146]					inhibition at 0.25 µM (read-out: % inhibition AKT): 77.6%; inhibition at 0.25 µM (read-out: % inhibition p70s6k): 83.7%
COCCOc1cnc2ccc(-c3cnc(OC)c(NS(=O)(=O)c4ccc(F)cc4Br)c3)cn2c1=O [compound 279]			≤ 50 nM		
CCOc1cnc2ccc(-c3cnc(OC)c(NS(=O)(=O)c4ccccc4Cl)c3)cn2c1=O [compound 173]					inhibition at 0.25 µM (read-out: % inhibition AKT): 88.9%; inhibition at 0.25 µM (read-out: % inhibition p70s6k): 82.6%
COc1ncc(-c2ccc3ncc(C)c(=O)n3c2)cc1NS(=O)(=O)c1ccc(Cl)cc1F [compound 82]	92.1%	88.1%	≤ 50 nM	100 to 250 nM	
COc1ncc(-c2ccc3nccc(=O)n3c2C)cc1NS(=O)(=O)c1ccc(F)cc1Cl [compound 56]	80.2%	53.3%			

SMILES	inhibition at 0.5 µM (read-out: % inhibition AKT)	inhibition at 0.5 µM (read-out: % inhibition p70s6k)	IC50 (read-out: IC50 p-AKT)	IC50 (read-out: IC50 p-p70S6K)	other results
COCOc1cnc2ccc(-c3cnc(OC)c(NS(=O)(=O)c4sc(N)nc4C)c3)cn2c1=O [compound 184]			50 to 100 nM		
COc1ncc(-c2ccc3ncc(Cl)c(=O)n3c2)cc1NS(=O)(=O)c1nc(C)c(C)s1 [compound 157]			≤ 50 nM	50 to 100 nM	inhibition at 0.25 µM (read-out: % inhibition AKT): 79.2%; inhibition at 0.25 µM (read-out: % inhibition p70s6k): 90.8%
COCCOc1cnc2ccc(-c3cnc(OC)c(NS(=O)(=O)c4cc(F)c(F)cc4Cl)c3)cn2c1=O [compound 266]			100 to 250 nM		
COc1ncc(-c2ccc3nccc(=O)n3c2)cc1NS(=O)(=O)c1ccc(C)nc1 [compound 32]	75.1%	84.2%	100 to 250 nM	100 to 250 nM	
COc1ncc(-c2ccc3ncc(Cl)c(=O)n3c2)cc1NS(=O)(=O)c1cnc(N)s1 [compound 161]			50 to 100 nM	> 250 nM	inhibition at 0.25 µM (read-out: % inhibition AKT): 79.5%; inhibition at 0.25 µM (read-out: % inhibition p70s6k): 41%
COCCOc1cnc2ccc(-c3cnc(OC)c(NS(=O)(=O)c4sc(N)nc4C)c3)cn2c1=O [compound 183]			≤ 50 nM		
COc1ncc(-c2ccc3nccc(=O)n3n2)cc1NS(=O)(=O)c1ccccc1F [compound 72]	51.1%	10.2%			
COc1ncc(-c2cn3c(=O)ccnc3cn2)cc1NS(=O)(=O)c1ccc(F)cc1F [compound 39, 2,4-difluoro-N-(2-methoxy-5-(4-oxo-4H-pyrazino[1,2-a]pyrimidin-7-yl)pyridin-3-yl)benzsulfamide]	-28.6%	7.1%			
COc1ncc(-c2ccc3ncc(Cl)c(=O)n3c2)cc1NS(=O)(=O)c1cccc(Cl)c1 [compound 141]	96.1%	88.1%	≤ 50 nM	≤ 50 nM	
COc1ncc(-c2cn3c(=O)ccnc3cc2C)cc1NS(=O)(=O)c1ccc(C(F)(F)F)cc1 [compound 130]	2.3%	2.6%			
COc1ncc(-c2ccc3ncc(-n4ccc(C)n4)c(=O)n3c2)cc1NS(=O)(=O)c1sc(C)nc1C [compound 218]			100 to 250 nM	100 to 250 nM	inhibition at 0.25 µM (read-out: % inhibition AKT): 85.2%; inhibition at 0.25 µM (read-out: % inhibition p70s6k): 85%
COc1ncc(-c2ccc3ncc(-n4ccc(C)n4)c(=O)n3c2)cc1NS(=O)(=O)c1ccc(F)cc1F [compound 216, 2,4-difluoro-N-(2-methoxy-5-(3-(3-methyl-1H-pyrazol-1-yl)-4-oxo-4H-pyrido[1,2-a]pyrimidin-7-yl)pyridin-3-yl)benzsulfamide]					inhibition at 0.25 µM (read-out: % inhibition AKT): 34.1%; inhibition at 0.25 µM (read-out: % inhibition p70s6k): 31%
COc1ncc(-c2cn3c(=O)ccnc3cc2C)cc1NS(=O)(=O)c1c(F)cccc1F [compound 125]	23.5%	5%			
COCCOc1cnc2ccc(-c3cnc(OC)c(NS(=O)(=O)c4ccccc4F)c3)cn2c1=O [compound 254]			50 to 100 nM		
COCCOc1cnc2ccc(-c3cnc(OC)c(NS(=O)(=O)c4cc(Cl)ccc4F)c3)cn2c1=O [compound 272]			≤ 50 nM		
COc1ncc(-c2ccc3ncc(Cl)c(=O)n3c2)cc1NS(=O)(=O)c1nc(N)sc1C [compound 170]			≤ 50 nM		
COc1ncc(-c2ccc3nccc(=O)n3c2C)cc1NS(=O)(=O)c1cccc(F)c1 [compound 53]	68%	40.9%			
COc1ncc(-c2ccc3nccc(=O)n3c2)cc1NS(=O)(=O)c1ccc(C(F)(F)F)cc1 [compound 22]			≤ 50 nM	100 to 250 nM	inhibition at 1 µM (read-out: % inhibition AKT): 94.5%; inhibition at 1 µM (read-out: % inhibition p70s6k): 94%
COc1ncc(-c2ccc3ncc(OCCOCC(F)(F)F)c(=O)n3c2)cc1NS(=O)(=O)c1sc(C)nc1C [compound 202]			≤ 50 nM		
